Laboratory results reported in ChEMBL document CHEMBL5505958, “Optimization of sequence and chiral content enhances therapeutic potential of tilapia piscidin peptides” (Eur J Med Chem, 2024).
In brackets after ≈: the same amount, converted by molar mass. Activity calls are given as the source filed them. The calls are words filed in the database; no cut-off is given here.

Experiments:
Enterococcus faecium [1] = test: Antibacterial activity against Enterococcus faecium 10067 assessed as inhibition of bacterial growth incubated for 16 to 20 hrs; type: functional; details: time 16-20 hrs
Klebsiella pneumoniae [2] = test: Bactericidal activity against Klebsiella pneumoniae BAA 2473 assessed as inhibition of bacterial growth in presence of 1 microg/ml of chymotrypsin (reference value: 1.56 to 3.13 microM); type: functional
Cell membrane [3] = test: Induction of cell membrane depolarization in Klebsiella pneumoniae BAA 2473 assessed as increase in fluorescence intensity at 1 times MIC incubated for 40 mins by DiBAC4(3) fluorescent dye based assay; type: cell membranes
Pseudomonas aeruginosa [4] = test: Antibacterial activity against Pseudomonas aeruginosa 19660 assessed as inhibition of bacterial growth incubated for 16 to 20 hrs in presence of human serum; type: functional; details: time 16-20 hrs
Klebsiella pneumoniae [5] = test: Bactericidal activity against Klebsiella pneumoniae BAA 2473 assessed as inhibition of bacterial growth in presence of 0.1 microg/ml of proteinase K (reference value: 1.56 to 3.13 microM); type: functional
Cell membrane [6] = test: Induction of outer cell membrane permeabilization in Klebsiella pneumoniae BAA 2473 assessed as increase in fluorescence intensity by NPN uptake assay; type: cell membranes
Klebsiella pneumoniae [7] = test: Antibacterial activity against Klebsiella pneumoniae BAA 2473 assessed as inhibition of bacterial growth in presence of 0.1 microg/ml of proteinase K (reference value: 1.56 to 3.13 microM); type: functional
Rhizopus arrhizus [8] = test: Fungicidal activity against Rhizopus oryzae 34550 assessed as inhibition of fungal growth incubated for 72 hrs; type: functional
Klebsiella pneumoniae [9] = test: Antibacterial activity against Klebsiella pneumoniae BAA 2473 assessed as inhibition of bacterial growth in presence of 1 microg/ml of proteinase K (reference value: 1.56 to 3.13 microM); type: functional
Enterococcus faecium [10] = test: Bactericidal activity against Enterococcus faecium 10067 assessed as inhibition of bacterial growth incubated for 16 to 20 hrs; type: functional; details: time 16-20 hrs
Pseudomonas aeruginosa [11] = test: Bactericidal activity against Pseudomonas aeruginosa 19660 assessed as inhibition of bacterial growth incubated for 16 to 20 hrs in presence of human serum; type: functional; details: time 16-20 hrs
Klebsiella oxytoca = test: Antibacterial activity against Klebsiella oxytoca 13985 assessed as inhibition of bacterial growth incubated for 16 to 20 hrs in presence of human serum; type: functional; details: time 16-20 hrs
Acinetobacter baumannii [12] = test: Antibacterial activity against Acinetobacter baumannii 10591 assessed as inhibition of bacterial growth incubated for 16 to 20 hrs in presence of human serum; type: functional; details: time 16-20 hrs
Klebsiella pneumoniae [13] = test: Antibacterial activity against Klebsiella pneumoniae BAA 2473 assessed as inhibition of bacterial growth in presence of 1 microg/ml of chymotrypsin (reference value: 1.56 to 3.13 microM); type: functional
Salmonella typhimurium [14] = test: Bactericidal activity against Salmonella typhimurium DT104 assessed as inhibition of bacterial growth incubated for 16 to 20 hrs; type: functional, Salmonella enterica subsp. enterica serovar Typhimurium; details: Salmonella enterica, time 16-20 hrs
Enterococcus faecalis [15] = test: Antibacterial activity against Enterococcus faecalis 10066 assessed as inhibition of bacterial growth incubated for 16 to 20 hrs; type: functional; details: time 16-20 hrs
Klebsiella pneumoniae [16] = test: Antibacterial activity against Klebsiella pneumoniae BAA 2473 assessed as inhibition of bacterial growth in presence of 10 microg/ml of proteinase K (reference value: 1.56 to 3.13 microM); type: functional
Acinetobacter baumannii [17] = test: Bactericidal activity against Acinetobacter baumannii 10591 assessed as inhibition of bacterial growth incubated for 16 to 20 hrs; type: functional; details: time 16-20 hrs
Lipopolysaccharide (LPS) = test: Displacement of BODIPY-TR-cadaverine from Klebsiella pneumoniae BAA 2473 lipopolysaccharide (LPS) assessed as increase in fluorescence intensity at 3.125 uM by fluorescence spectrophotometric analysis; type: subcellular
Salmonella enterica [18] = test: Antibacterial activity against Salmonella enterica 15455 assessed as inhibition of bacterial growth incubated for 16 to 20 hrs; type: functional; details: time 16-20 hrs
Klebsiella pneumoniae [19] = test: Bactericidal activity against Klebsiella pneumoniae BAA 2473 assessed as inhibition of bacterial growth in presence of 0.1 microg/ml of chymotrypsin (reference value: 1.56 to 3.13 microM); type: functional
Vibrio vulnificus = test: Antibacterial activity against Vibrio vulnificus 204 assessed as inhibition of bacterial growth incubated for 16 to 20 hrs; type: functional; details: time 16-20 hrs
Klebsiella pneumoniae [20] = test: Antibacterial activity against Klebsiella pneumoniae BAA 2473 assessed as inhibition of bacterial growth in presence of 1 microg/ml of trypsin (reference value: 1.56 to 3.13 microM); type: functional
Acinetobacter baumannii [21] = test: Antibacterial activity against Acinetobacter baumannii 10591 assessed as inhibition of bacterial growth incubated for 16 to 20 hrs; type: functional; details: time 16-20 hrs
Klebsiella pneumoniae [22] = test: Bactericidal activity against Klebsiella pneumoniae BAA 2473 assessed as inhibition of bacterial growth in presence of 10 microg/ml of proteinase K (reference value: 1.56 to 3.13 microM); type: functional
Rhizopus arrhizus [23] = test: Fungicidal activity against Rhizopus oryzae 34550 assessed as inhibition of fungal growth incubated for 16 to 20 hrs in presence of human serum; type: functional; details: time 16-20 hrs
Rhizopus arrhizus [24] = test: Antifungal activity against Rhizopus oryzae 34550 assessed as inhibition of fungal growth incubated for 16 to 20 hrs; type: functional; details: time 16-20 hrs
Escherichia coli [25] = test: Bactericidal activity against Escherichia coli 10675 assessed as inhibition of bacterial growth incubated for 16 to 20 hrs in presence of human serum; type: functional; details: time 16-20 hrs
Enterococcus faecium [26] = test: Antibacterial activity against Enterococcus faecium 10067 assessed as inhibition of bacterial growth incubated for 16 to 20 hrs in presence of human serum; type: functional; details: time 16-20 hrs
Klebsiella pneumoniae [27] = test: Antibacterial activity against Klebsiella pneumoniae BAA 2473 assessed as inhibition of bacterial growth in presence of 0.1 microg/ml of chymotrypsin (reference value: 1.56 to 3.13 microM); type: functional
Klebsiella pneumoniae [28] = test: Bactericidal activity against Klebsiella pneumoniae BAA 2473 assessed as inhibition of bacterial growth in presence of 10 microg/ml of trypsin (reference value: 1.56 to 3.13 microM); type: functional
Klebsiella pneumoniae [29] = test: Bactericidal activity against Klebsiella pneumoniae BAA 2473 assessed as inhibition of bacterial growth in presence of 0.1 microg/ml of pepsin (reference value: 1.56 to 3.13 microM); type: functional
Enterococcus faecalis [30] = test: Bactericidal activity against Enterococcus faecalis 10066 assessed as inhibition of bacterial growth incubated for 16 to 20 hrs; type: functional; details: time 16-20 hrs
Klebsiella pneumoniae [31] = test: Induction of morphological changes in Klebsiella pneumoniae BAA 2473 assessed as membrane deformations with protruding granules at by transmission electron microscopy analysis; type: functional, organism-based
Escherichia coli [32] = test: Antibacterial activity against Escherichia coli 10675 assessed as inhibition of bacterial growth incubated for 16 to 20 hrs in presence of human serum; type: functional; details: time 16-20 hrs
Salmonella typhimurium [33] = test: Antibacterial activity against Salmonella typhimurium DT104 assessed as inhibition of bacterial growth incubated for 16 to 20 hrs in presence of human serum; type: functional, Salmonella enterica subsp. enterica serovar Typhimurium; details: Salmonella enterica, time 16-20 hrs
Klebsiella pneumoniae [34] = test: Bactericidal activity against Klebsiella pneumoniae BAA 2473 assessed as inhibition of bacterial growth incubated for 16 to 20 hrs; type: functional; details: time 16-20 hrs
Klebsiella pneumoniae [35] = test: Bactericidal activity against Klebsiella pneumoniae 10692 assessed as inhibition of bacterial growth incubated for 16 to 20 hrs; type: functional; details: time 16-20 hrs
Klebsiella pneumoniae [36] = test: Bactericidal activity against Klebsiella pneumoniae BAA 2473 assessed as inhibition of bacterial growth in presence of 10 microg/ml of pepsin (reference value: 1.56 to 3.13 microM); type: functional
Salmonella enterica [37] = test: Bactericidal activity against Salmonella enterica 15455 assessed as inhibition of bacterial growth incubated for 16 to 20 hrs in presence of human serum; type: functional; details: time 16-20 hrs

Molecule	MIC (Enterococcus faecium [1])	MBC (Klebsiella pneumoniae [2])	Activity (Cell membrane [3])	MIC (Pseudomonas aeruginosa [4])	MBC (Klebsiella pneumoniae [5])	Activity (Cell membrane [6])	MIC (Klebsiella pneumoniae [7])	MFC (Rhizopus arrhizus [8])	MIC (Klebsiella pneumoniae [9])	MBC (Enterococcus faecium [10])	MBC (Pseudomonas aeruginosa [11])	MIC (Klebsiella oxytoca)	MIC (Acinetobacter baumannii [12])	MIC (Klebsiella pneumoniae [13])	MBC (Salmonella typhimurium [14])	MIC (Enterococcus faecalis [15])	MIC (Klebsiella pneumoniae [16])	MBC (Acinetobacter baumannii [17])	Activity (Lipopolysaccharide (LPS))	MIC (Salmonella enterica [18])	further results
H-FIHHIIGGLFSAGKAIHRLIRRRRR-OH	0.39 µM	> 100 µM	Active	> 100 µM	1.56 µM	Active	1.56 µM	1.56 µM	> 100 µM	0.78 µM	100 µM	> 100 µM	100 µM	> 100 µM	6.25 µM	3.13 µM	> 100 µM	1.56 µM	95%	3.13 µM	MBC (Klebsiella pneumoniae [19]): 1.56 µM; MIC (Vibrio vulnificus): 3.13 µM; MIC (Klebsiella pneumoniae [20]): > 100 µM; MIC (Acinetobacter baumannii [21]): 1.56 µM; MBC (Klebsiella pneumoniae [22]): > 100 µM; MBC (Rhizopus arrhizus [23]): 100 µM; MIC (Rhizopus arrhizus [24]): 1.56 µM; MBC (Escherichia coli [25]): > 100 µM; MIC (Enterococcus faecium [26]): 100 µM; MIC (Klebsiella pneumoniae [27]): 1.56 µM; MBC (Klebsiella pneumoniae [28]): > 100 µM; MBC (Klebsiella pneumoniae [29]): 3.13 µM; MBC (Enterococcus faecalis [30]): 3.13 µM; Activity (Klebsiella pneumoniae [31]): Active; MIC (Escherichia coli [32]): > 100 µM; MIC (Salmonella typhimurium [33]): > 100 µM; MBC (Klebsiella pneumoniae [34]): 3.13 µM; MBC (Klebsiella pneumoniae [35]): 0.78 µM; MBC (Klebsiella pneumoniae [36]): > 100 µM; MBC (Salmonella enterica [37]): 100 µM
CC(C)C[C@H](NC(=O)[C@H](CCCCN)NC(=O)[C@@H](CCCCN)NC(=O)[C@H](CC(C)C)NC(=O)[C@@H](N)Cc1ccccc1)C(=O)N[C@H](CC(C)C)C(=O)N[C@@H](CCCCN)C(=O)N[C@@H](C)C(=O)N[C@H](CC(C)C)C(=O)N[C@@H](Cc1ccccc1)C(=O)N[C@@H](CO)C(=O)N[C@H](C)C(=O)N1CCC[C@H]1C(=O)N[C@@H](CCCCN)C(=O)N[C@H](C)C(=O)N[C@@H](CC(C)C)C(=O)N[C@@H](CCCCN)C(=O)N[C@H](CCCNC(=N)N)C(=O)N[C@@H](CC(C)C)C(=O)N[C@@H](CC(C)C)C(=O)N[C@H](CCCNC(=N)N)C(=O)N[C@@H](CCCNC(=N)N)C(=O)N[C@@H](CCCNC(=N)N)C(=O)N[C@H](CCCNC(=N)N)C(=O)N[C@@H](CCCNC(=N)N)C(=O)O	3.13 µM (≈ 9.64 µg/mL)	0.78 µM	Active	3.13 µM	0.78 µM	Active	0.78 µM	0.78 µM (≈ 2.4 µg/mL)	0.78 µM	12.5 µM (≈ 38.5 µg/mL)	6.25 µM	3.13 µM	3.13 µM	0.78 µM	6.25 µM (≈ 19.2 µg/mL)	25 µM (≈ 77 µg/mL)	0.78 µM	3.13 µM (≈ 9.64 µg/mL)	100%	3.13 µM (≈ 9.64 µg/mL)	MBC (Klebsiella pneumoniae [19]): 0.78 µM; MIC (Vibrio vulnificus): 12.5 µM (≈ 38.5 µg/mL); MIC (Klebsiella pneumoniae [20]): 1.56 µM; MIC (Acinetobacter baumannii [21]): 3.13 µM (≈ 9.64 µg/mL); MBC (Klebsiella pneumoniae [22]): 0.78 µM; MBC (Rhizopus arrhizus [23]): 100 µM; MIC (Rhizopus arrhizus [24]): 0.78 µM (≈ 2.4 µg/mL); MBC (Escherichia coli [25]): 0.78 µM; MIC (Enterococcus faecium [26]): 100 µM; MIC (Klebsiella pneumoniae [27]): 0.78 µM; MBC (Klebsiella pneumoniae [28]): 1.56 µM; MBC (Klebsiella pneumoniae [29]): 0.78 µM; MBC (Enterococcus faecalis [30]): > 12.5 µM; Activity (Klebsiella pneumoniae [31]): Active; MIC (Escherichia coli [32]): 0.78 µM; MIC (Salmonella typhimurium [33]): 3.13 µM; MBC (Klebsiella pneumoniae [34]): 25 µM (≈ 77 µg/mL); MBC (Klebsiella pneumoniae [35]): 3.13 µM (≈ 9.64 µg/mL); MBC (Klebsiella pneumoniae [36]): 0.78 µM; MBC (Salmonella enterica [37]): 0.78 µM
